# Laboratory results from US20240352418A1, “METHOD FOR PRODUCING MULTINUCLEATED MEGAKARYOCYTE WITH ENHANCED PLATELET PRODUCTION CAPABILITY, METHOD FOR PRODUCING PLATELETS, METHOD FOR PRODUCING PLATELET PREPARATION, AND METHOD FOR PRODUCING BLOOD PREPARATION” (Megakaryon Corporation, priority 2021, published 2024).
# Assays:
# [1] = test system: multinucleated megakaryocytes induced from immortalized megakaryocyte cell line (MKCL); experiment: Size and expansion of multinucleated megakaryocytes after BSA fractionation (FSC, phase-contrast microscope); format: cell-based, human; details: F1 fraction, phase-contrast images, FIG. 4; AZ191 1 μmol/L and blebbistatin 10 μmol/L added together to GNF351 + Y-39983 (1B vs 1A); harmine 5 μmol/L added on top (Example 1 vs 1B)
# Source text: Multinucleation was induced by culturing the immortalized megakaryocyte cell line obtained in Example 1(1) in the same manner as in Example 1(2). The obtained multinucleated megakaryocytes were fractionated according to the size of multinucleated megakaryocytes using bovine serum albumin. Specifically, a three-way stopcock was attached to a 50-ml injection syringe with a plunger removed, and the syringe was fixed with a clamp with a leading end of the tube facing downward. A 30% (w/v) albumin solution (derived from bovine serum, fatty acid free, Fujifilm Wako Pure Chemical Corporation #017-22231) was diluted with 1×HBSS (ThermoFisher #14175095) to prepare 2%, 4%, and 16% BSA solutions, and 16% (10 ml), 4% (4 ml), 2% (4 ml), and 0% (2 ml) solutions were layered in the above syringe in the stated order. A cell suspension containing 75×10^5 multinucleated megakaryocyte cells prepared using 2 ml of HBSS was then applied and allowed to stand for 50 minutes, so that the cells were settled under natural gravity. Then, the three-way stopcock was loosened, and the cells were collected by dropping droplets thereof. As a result, the cell population containing the multinucleated megakaryocytes was fractionated into fractions 1 to 4 (F1 to F4). Regarding the multinucleated megakaryocytes of each fraction, the number of sets of chromosomes (N) was analyzed in the same manner as in Example 1(3) above (Example 1). […]
# After the fractionation, platelets were produced from multinucleated megakaryocytes by culturing the multinucleated megakaryocytes in the production culture medium excluding DOX. […] After the culturing, regarding the cell suspension containing platelets, the amount of platelets produced per megakaryocyte was calculated in the same manner as in Example 1(4).
# [2] = test system: immortalized megakaryocyte cell line (MKCL); experiment: Degree of multinucleation (number of sets of chromosomes, PI staining, flow cytometer); format: cell-based, human; details: cultured 3 days with DOX; FIG. 1; harmine alone 10 μmol/L in growth medium (control 2); Example 1 = multinucleation culture medium; vs control 1 (growth medium)
# Protocol: Next, multinucleation of immortalized megakaryocytes was induced by culturing, in a culture medium to which an AhR inhibitor, a ROCK inhibitor, a DYRK inhibitor, a myosin 2 inhibitor, and harmine were added in addition to DOX. Specifically, the immortalized megakaryocyte cell line obtained in Example 1(1) was suspended in a multinucleation culture medium below, to 3.0×10^5 cells/ml. Then, the cells were seeded on a 6-well dish at 2 mL/well, or on a 125-mL Erlenmeyer Flask at 25 mL/flask, and cultured while being shaken at 100 rpm for 3 days. The culture conditions were set to 37° C. and 5% CO2. […]
# The cell suspension obtained after the culturing was collected, and the number of sets of chromosomes in the cell suspension and the size of the cells were measured using a flow cytometer. […] As for the obtained results, the number of sets of chromosomes (N) contained in megakaryocytes and the size of the cells was analyzed based on FSC and PI staining intensity (Example 1). […]
# The nuclear phases of the multinucleated megakaryocytes obtained using the method for producing multinucleated megakaryocytes according to the present invention were examined. […] As for the obtained results, the number of sets of chromosomes (N) contained in megakaryocytes and the size of the cells was analyzed based on FSC and PI staining intensity. […]
Structure (SMILES),expansion of multinucleated megakaryocytes [1],degree of multinucleation (nuclear phases detected) [2]
"COc1cc(N2CCN(C)CC2)ccc1Nc1nccc(-c2cn(C)c3cnccc23)n1 [AZ191, N-[2-methoxy-4-(4-methyl-1-piperazinyl)phenyl]-4-(1-methyl-1H-pyrrolo [2,3-c]pyridin-3-yl)-2-pyrimidinamine]",facilitated expansion of multinucleated megakaryocytes,–
"COc1ccc2c(c1)[nH]c1c(C)nccc12 [harmine, 7-methoxy-1-methyl-9H-pyrido[3,4-b]indole]",no effect,32N multinucleated megakaryocytes were slightly detected
"Cc1ccc2c(c1)C(=O)C1(O)CCN(c3ccccc3)C1=N2 (stereo not shown) [blebbistatin, 3a-hydroxy-6-methyl-1-phenyl-2,3-dihydropyrrolo[2,3-b]quinolin-4-one]",facilitated expansion of multinucleated megakaryocytes,–
